In BindingDB's records for doi:10.1016/j.ejmech.2018.06.047 (University of Oulu, 2018):
pIC50: −log10 of the molar value.

Experiment: Inhibition of ARTD10 (unknown origin)-induced cell death expressed in human HeLa cells after 10 days by methylene blue staining based colony formation assay

Structure (SMILES) | pIC50
NC(=O)c1ccc(OCc2ccccc2F)cc1 | 5.70
NC(=O)c1ccc(Oc2ccc(C=O)cc2)cc1 | 6.00
